This is an account of results in the supplement of paper PMC8967900.

Some test systems named below: RCH-ACV; COG-LL-394h; 380.
Assay in all cases: selective drug sensitivity score (sDSS, relative to normal bone marrow) (sDSS (score)); higher = more potent and effective on the cell line relative to normal bone marrow cells
What all share (conditions): 72 h
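Also: ALL cell lines in 384-well plates, five doses spanning 10,000-fold, each plate scaled between vehicle and 100 µmol/L benzalkonium chloride controls, sDSS an adapted area-under-curve metric.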

Regarding `COc1cccc2c1C(=O)c1c(O)c3c(c(O)c1C2=O)C[C@@](O)(C(=O)CO)C[C@@H]3O[C@H]1C[C@H](N)[C@@H](O)[C@H](C)O1` [Epirubicin] (top concentration 1000 nM), the “selective drug sensitivity score” value with RCH-ACV was found to be 12.9; with COG-LL-394h, 6.82; in the assay on 380, 13.8.

Consider `Cc1sc2c(c1C)C(c1ccc(Cl)cc1)=N[C@@H](CC(=O)NCCCCNC(=O)COc1cccc3c1C(=O)N(C1CCC(=O)NC1=O)C3=O)c1nnc(C)n1-2` (stereo not given in full) [dBET1] (top concentration 10000 nM), for which the entries for the “selective drug sensitivity score” value in the assay with RCH-ACV, with COG-LL-394h and in the assay on 380 were 0.22, -2.78 and -4.58, respectively.

For the compound `CN(Cc1cnc2nc(N)nc(N)c2n1)c1ccc(C(=O)N[C@@H](CCC(=O)O)C(=O)O)cc1` [Methotrexate] (top concentration 5000 nM), the results for the “selective drug sensitivity score” value in the assay on RCH-ACV, in the assay with COG-LL-394h and in the assay with 380 were 9.48, 1.68 and 17.8, respectively.

With `CON(C)C(=O)N1N=C(c2cc(F)ccc2F)S[C@@]1(CCCN)c1ccccc1` [Filanesib] (top concentration 1000 nM), the entries for the “selective drug sensitivity score” value with RCH-ACV, with COG-LL-394h and with 380 were 16.3, 8.7 and 18.5, respectively.

Regarding `CO[C@H]1C[C@@H]2CC[C@@H](C)[C@@](O)(O2)C(=O)C(=O)N2CCCC[C@H]2C(=O)O[C@H]([C@H](C)C[C@@H]2CC[C@@H](OCCO)[C@H](OC)C2)CC(=O)[C@H](C)/C=C(\C)[C@@H](O)[C@@H](OC)C(=O)[C@H](C)C[C@H](C)/C=C/C=C/C=C/1C` [Everolimus] (top concentration 100 nM), the “selective drug sensitivity score” value in the assay with RCH-ACV is 16; with COG-LL-394h, -4.9; in the assay with 380 it was 16.5.

As to `CN1CCN(C2CCC(n3cc(-c4ccc(Oc5ccccc5)cc4)c4c(N)ncnc43)CC2)CC1` (stereo not given) (top concentration 10000 nM), the entries for the “selective drug sensitivity score” value in the assay with RCH-ACV, with COG-LL-394h and with 380 were 22.7, 4.42 and -0.68, respectively.

For `CC[C@@]1(O)C(=O)OCc2c1cc1n(c2=O)Cc2cc3c(CN(C)C)c(O)ccc3nc2-1` [Topotecan] (top concentration 10000 nM), the “selective drug sensitivity score” value was 19.5 in the assay with RCH-ACV, 11.4 with COG-LL-394h and 27.1 in the assay on 380.

On to `CC[C@H](CC#N)OC(=O)N[C@@H](C)c1cccc(NC(=O)Nc2ccc(-c3cnco3)c(OC)c2)c1` [AVN944] (top concentration 10000 nM), for which the “selective drug sensitivity score” value in the assay with RCH-ACV was 22; with COG-LL-394h it was -2.06; in the assay with 380, 18.4.

For the compound `COc1ccc(-c2ccc3c(N4CCOC[C@@H]4C)nc(N4CCOC[C@@H]4C)nc3n2)cc1CO` [AZD8055] (top concentration 10000 nM), the “selective drug sensitivity score” value was 27.4 in the assay with RCH-ACV, -2.42 in the assay with COG-LL-394h and 15.8 in the assay with 380.

As to `O=c1[nH]c(=O)n([C@H]2C[C@H](O)[C@@H](CO)O2)cc1C(F)(F)F` [Trifluridine] (top concentration 10000 nM), the entries for the “selective drug sensitivity score” value with RCH-ACV, in the assay on COG-LL-394h and in the assay on 380 were 15.2, 2.66 and 14, respectively.
